Laboratory results: publication PMC10233092, “Selective Janus kinase 1 inhibition resolves inflammation and restores hair growth offering a viable treatment option for alopecia areata” (Skin Health and Disease, 2023)
Several values for one entry are separate records, joined by “and”; a condition that tells them apart may be missing. Equal entries are not always repeated. One block for each compound: values may come before it.

Experiments:
[1] = test system: C3H/HeJ mouse model of AA; experiment: Hair growth (Hair Index Score) in C3H/HeJ graft-induced AA mice; type: in vivo; conditions: for Hair index score (% area x score, 0 to 3): individual mice and mean±SD
Experimental: Female C3H/HeJ graft‐induced mice were used as a preclinical model of Alopecia Areata (AA) according to previous publications.[45], [46], [47] Healthy C3H/HeJ and mice with fully developed AA (16–24 weeks after induction of disease) were monitored by means of body weight and hair index score on a weekly basis for 12 weeks, with free access to food and water (Healthy and AA groups, respectively).
Hair growth was evaluated using a scoring index (Hair Index Score, HIS). A score from 0 to 3 (0 = no fur, 1 = stubble, short broken hairs, 2 = sparse, intermediate length hairs, 3 = normal length and density hairs) was taken times the surface area of the mouse with each respective score (dorsal area = 50%, ventral area = 50%).
12 mice were given once daily servings of Cmpd A for free eating at approximately 100 mg/kg (compound dissolved in 10 ml tap water and mixed with 5 g grounded R70 standard rodent chow from Lantmännen, Sweden) for 4 weeks. Typically, these servings were finished within 2 h. Six mice were terminated at the end of the treatment period, blood and skin taken for determination of drug concentration and skin sampled for histopathological evaluation (see below, these mice are representing the systemic JAK1 inhibition group in histopathological evaluations). Skin biopsies for mRNA expression and blood was sampled from the other 6 mice where after these mice were followed off treatment for an additional 8 weeks when terminal samples were taken (8w off Tx group).
Another set of 6 mice were treated topically on the right side of their back with Cmpd B (0.1% cream formulation, Eucerin Aquaporin rich) for 12 weeks (local JAK1 inhibition group). Initially, twice weekly for 2 weeks followed by once weekly due to high tissue retention. Plasma exposure was evaluated during the course of the study as well as at termination when also skin was sampled for exposure, histopathological evaluation and mRNA expression.
The aim of the study was to achieve similar skin exposures by both routes of administration but only systemic exposure after oral administration. […] Blood, skin, lymph nodes and spleens were collected at termination for evaluation of exposure, mRNA expression, histopathology (RNAScope) and cell differentials (flow cytometry). Untreated healthy and alopecic mice served as controls (n = 6).

[2] = test system: C3H/HeJ mouse model of AA; experiment: Skin histopathology and hair follicle analysis in AA mice; type: in vivo; conditions: for Follicle width / Number of hair follicles per section (hypodermal): individual mice and Mean; for skin inflammation, result in words: AA mice, oral daily servings (systemic exposure)
Experimental: A 1 cm^2 area of skin was excised from the right dorsal surface and fixed in 10% neutral buffered formalin for 24 h before processing and embedding in paraffin wax according to standard procedures. Vertical sectioning was chosen to allow for optimal detection of inflammatory cells whilst enabling follicular counts. 3 μm longitudinal sections were cut and stained with haematoxylin and eosin for histopathological analysis. Skin sections were scanned using an Aperio Scanscope. CD8 and NKG2D in situ hybridization (ISH) was carried out using the RNAScope technique[48] according to the manufacturer's protocols. Briefly, tissue sections were deparaffinised and incubated with epitope retrieval solution 2 for 15 min at 88°C followed by ACD protease for 10 min before hybridization with probe Mm‐Klrk1 (ACD, Cat.No.430808) and probe Mm‐Cd8a‐C2 (ACD, Cat.No. 401688‐C2) or duplex negative control probes Mm‐DapB (ACD, Cat.No. 320758). Bound probe was visualized following amplification with RNAScope 2.5 LS Duplex Reagent Kit‐(RED/BROWN) (ACD Cat.No. 322440). Staining was visualized by light microscopy. Number of hair follicles and hair follicle width were analyzed using ImageJ software edition ImageJ2. Images were imported using the bio‐format importer plug in. The number of follicles were counted using the cell counter plugin. All follicles on all sections in the dermal fat layer were counted. Follicle width was calculated with use of the circle tool to capture follicle area and from it calculate the width. All follicles on all sections in the dermal fat layer were included in the width analysis.

IL‐13, STAT6‐Luc = experiment: IL-13-induced JAK-STAT6-luciferase assay in U937 monocytes; type: cell-based; conditions: Homo sapiens, U-937, interleukin at EC80
[3] = Plasma and skin exposure in treated AA mice; conditions: AA mice
JAK2 = JAK2 (Homo sapiens, UniProt O60674); experiment: JAK2 kinase inhibition, Calliper assay; type: biochemical; conditions: physiological ATP concentration of 5 mM
[4] = AA mice, oral daily servings (systemic exposure)
[5] = 8w off Tx (4 weeks oral treatment, then 8 weeks off)
[6] = 8w off Tx (4 weeks oral treatment, then 8 weeks off), mean
[7] = Systemic JAK1i, after 4 weeks oral treatment
[8] = Systemic JAK1i, after 4 weeks oral treatment, mean
[9] = AA mice, topical application (local exposure)
[10] = topical cream application (local)

Sequence of JAK2 (O60674 whole entry, species assumed): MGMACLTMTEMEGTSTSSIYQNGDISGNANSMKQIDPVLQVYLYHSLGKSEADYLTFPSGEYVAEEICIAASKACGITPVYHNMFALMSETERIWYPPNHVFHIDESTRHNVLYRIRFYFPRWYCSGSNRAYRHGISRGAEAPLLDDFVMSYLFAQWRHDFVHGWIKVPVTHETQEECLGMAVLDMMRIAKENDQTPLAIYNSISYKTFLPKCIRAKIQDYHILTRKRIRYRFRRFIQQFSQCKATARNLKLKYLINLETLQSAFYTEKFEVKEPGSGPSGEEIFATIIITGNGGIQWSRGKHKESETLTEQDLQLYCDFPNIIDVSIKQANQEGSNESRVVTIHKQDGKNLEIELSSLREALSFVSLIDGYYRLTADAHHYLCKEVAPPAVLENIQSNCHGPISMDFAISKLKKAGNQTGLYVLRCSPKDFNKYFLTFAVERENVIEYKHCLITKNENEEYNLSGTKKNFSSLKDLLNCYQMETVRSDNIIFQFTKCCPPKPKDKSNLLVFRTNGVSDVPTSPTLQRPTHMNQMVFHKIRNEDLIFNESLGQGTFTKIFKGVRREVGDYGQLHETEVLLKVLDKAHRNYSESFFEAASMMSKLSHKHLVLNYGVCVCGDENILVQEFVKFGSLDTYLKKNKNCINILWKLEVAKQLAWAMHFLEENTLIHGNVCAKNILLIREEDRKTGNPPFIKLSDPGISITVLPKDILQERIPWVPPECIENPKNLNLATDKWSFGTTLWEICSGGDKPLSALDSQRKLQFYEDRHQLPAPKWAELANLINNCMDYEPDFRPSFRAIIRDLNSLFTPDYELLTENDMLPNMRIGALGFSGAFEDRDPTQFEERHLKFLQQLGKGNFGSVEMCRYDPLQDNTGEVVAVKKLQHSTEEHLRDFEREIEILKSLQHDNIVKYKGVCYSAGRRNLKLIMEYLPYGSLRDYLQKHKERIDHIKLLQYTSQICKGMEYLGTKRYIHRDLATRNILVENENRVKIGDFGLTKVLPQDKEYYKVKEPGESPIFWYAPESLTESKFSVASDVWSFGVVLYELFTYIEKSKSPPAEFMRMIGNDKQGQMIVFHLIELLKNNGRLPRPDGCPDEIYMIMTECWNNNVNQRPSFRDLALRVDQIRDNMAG

- IC50 (IL‐13, STAT6‐Luc): 120 nM
- estimated average free exposure in plasma over IC50 ([3]; oral daily servings (systemic)): 1.2 fold IC50
- estimated average free exposure in skin over IC50 ([3]; oral daily servings (systemic)): 0.1 fold IC50
- IC50 (JAK2): 18000 nM
Structure (SMILES): Cc1cnc(Nc2cccnc2F)nc1-c1c[nH]c2c(NC(=O)[C@@H](C)N3CCN(C)CC3)cccc12 [Cmpd A]
- remission after treatment cessation ([1]; AA mice, 4 weeks treatment, followed 8 weeks off treatment): relapsed after treatment cessation
- hair growth, result in words [1, 4]: quick and complete restoration of hair growth
- time to complete regrowth (Hair Index Score) ([1]; AA mice, oral treatment, n = 6 per group): ≤ 4 weeks
- Hair index score (% area x score, 0 to 3) ([1]; Systemic JAK1i group terminated at w4 (oral ~100 mg/kg daily), w0, n=6, 100 mg/kg): 0 and 20
- Hair index score (% area x score, 0 to 3) ([1]; Systemic JAK1i group terminated at w4 (oral ~100 mg/kg daily), w0, n=6, 100 mg/kg, mean): 3±8
- Hair index score (% area x score, 0 to 3) ([1]; Systemic JAK1i group terminated at w4, w1): 0 and 15 and 10
- Hair index score (% area x score, 0 to 3) ([1]; Systemic JAK1i group terminated at w4, w1, mean): 7±7
- Hair index score (% area x score, 0 to 3) ([1]; Systemic JAK1i group terminated at w4, w2): 160 and 170 and 180 and 120 and 190
- Hair index score (% area x score, 0 to 3) ([1]; Systemic JAK1i group terminated at w4, w2, mean): 163±24
- Hair index score (% area x score, 0 to 3) ([1]; Systemic JAK1i group terminated at w4, w3): 280 and 285 and 290 and 250 and 295
- Hair index score (% area x score, 0 to 3) ([1]; Systemic JAK1i group terminated at w4, w3, mean): 280±16
- Hair index score (% area x score, 0 to 3) ([1]; Systemic JAK1i group terminated at w4, w4): 300
- Hair index score (% area x score, 0 to 3) ([1]; Systemic JAK1i group terminated at w4, w4, mean): 300±0
- Hair index score (% area x score, 0 to 3) ([1]; Systemic JAK1i group treated 4 weeks then followed off treatment, w0, n=6): 125 and 50 and 20 and 90
- Hair index score (% area x score, 0 to 3) ([1]; Systemic JAK1i group treated 4 weeks then followed off treatment, w0, n=6, mean): 71±38
- Hair index score (% area x score, 0 to 3) ([1]; Systemic JAK1i group treated 4 weeks then off treatment, w1): 125 and 50 and 20 and 90
- Hair index score (% area x score, 0 to 3) ([1]; Systemic JAK1i group treated 4 weeks then off treatment, w1, mean): 71±38
- Hair index score (% area x score, 0 to 3) ([1]; Systemic JAK1i group treated 4 weeks then off treatment, w2): 170 and 200 and 140 and 180 and 190
- Hair index score (% area x score, 0 to 3) ([1]; Systemic JAK1i group treated 4 weeks then off treatment, w2, mean): 180±23
- Hair index score (% area x score, 0 to 3) ([1]; Systemic JAK1i group treated 4 weeks then off treatment, w4): 285 and 295 and 300
- Hair index score (% area x score, 0 to 3) ([1]; Systemic JAK1i group treated 4 weeks then off treatment, w4, mean): 295±5
- Hair index score (% area x score, 0 to 3) ([1]; Systemic JAK1i group treated 4 weeks then off treatment, w8 (4 weeks off)): 245 and 200 and 210 and 195 and 270 and 75
- Hair index score (% area x score, 0 to 3) ([1]; Systemic JAK1i group treated 4 weeks then off treatment, w8 (4 weeks off), mean): 199±67
- Hair index score (% area x score, 0 to 3) ([1]; Systemic JAK1i group treated 4 weeks then off treatment, w12 (8 weeks off)): 90 and 60 and 85 and 45 and 205 and 35
- Hair index score (% area x score, 0 to 3) ([1]; Systemic JAK1i group treated 4 weeks then off treatment, w12 (8 weeks off), mean): 87±62
- Follicle width [2, 5]: 36 μm and 26 μm and 38 μm and 31 μm and 35 μm
- Number of hair follicles per section (hypodermal) [2, 5]: 51 and 595 and 35 and 9 and 44 and 48
- Follicle width [2, 6]: 32 μm
- Number of hair follicles per section (hypodermal) [2, 6]: 130
- skin inflammation, result in words [2]: resolution of inflammation in the skin
- Follicle width [2, 7]: 28 μm and 26 μm and 29 μm and 25 μm
- Number of hair follicles per section (hypodermal) [2, 7]: 150 and 542 and 263 and 363 and 20 and 288
- Follicle width [2, 8]: 27 μm
- Number of hair follicles per section (hypodermal) [2, 8]: 271

- IC50 (IL‐13, STAT6‐Luc): 100 nM
- estimated average free exposure in plasma over IC50 [3, 10]: 0.02 fold IC50
- estimated average free exposure in skin over IC50 [3, 10]: 1.9 fold IC50
- IC50 (JAK2): > 30000 nM
Structure (SMILES): Cc1cnc(Nc2cc(N3C[C@@H]4C[C@H]3CN4C)cnc2F)nc1N[C@H](C)[C@H](C)CO [Cmpd B, (2S,3R)-3-{[2-({2-fluoro-5-[(1S,4S)-5-methyl-2,5-diazabicyclo[2.2.1]heptan-2-yl]pyridin-3-yl}amino)-5-methylpyrimidin-4-yl]amino}-2-methylbutan-1-ol]
- hair growth, result in words [1, 9]: did not restore hair growth
- Hair index score (% area x score, 0 to 3) ([1]; Local JAK1i (0.1% cream topical), treated side, w0, n=6): 50 and 0
- Hair index score (% area x score, 0 to 3) ([1]; Local JAK1i (0.1% cream topical), treated side, w0, n=6, mean): 17±26
- Hair index score (% area x score, 0 to 3) ([1]; Local JAK1i (0.1% cream topical), untreated side, w0, n=6): 30 and 0 and 10
- Hair index score (% area x score, 0 to 3) ([1]; Local JAK1i (0.1% cream topical), untreated side, w0, n=6, mean): 7±12
- Hair index score (% area x score, 0 to 3) ([1]; Local JAK1i, treated side, w1): 50 and 0 and 100
- Hair index score (% area x score, 0 to 3) ([1]; Local JAK1i, treated side, w1, mean): 25±42
- Hair index score (% area x score, 0 to 3) ([1]; Local JAK1i, treated side, w4): 80 and 0 and 10 and 20
- Hair index score (% area x score, 0 to 3) ([1]; Local JAK1i, treated side, w4, mean): 18±31
- Hair index score (% area x score, 0 to 3) ([1]; Local JAK1i, treated side, w6): 200 and 0 and 50 and 30
- Hair index score (% area x score, 0 to 3) ([1]; Local JAK1i, treated side, w6, mean): 47±78
- Hair index score (% area x score, 0 to 3) ([1]; Local JAK1i, treated side, w7): 200 and 80 and 0 and 100
- Hair index score (% area x score, 0 to 3) ([1]; Local JAK1i, treated side, w7, mean): 80±75
- Hair index score (% area x score, 0 to 3) ([1]; Local JAK1i, treated side, w8): 200 and 0 and 50 and 100
- Hair index score (% area x score, 0 to 3) ([1]; Local JAK1i, treated side, w8, mean): 58±80
- Hair index score (% area x score, 0 to 3) ([1]; Local JAK1i, treated side, w9): 240 and 0 and 25 and 70 and 90
- Hair index score (% area x score, 0 to 3) ([1]; Local JAK1i, treated side, w9, mean): 71±91
- Hair index score (% area x score, 0 to 3) ([1]; Local JAK1i, treated side, w11): 240 and 0 and 100 and 80
- Hair index score (% area x score, 0 to 3) ([1]; Local JAK1i, treated side, w11, mean): 70±94
- Hair index score (% area x score, 0 to 3) ([1]; Local JAK1i, untreated side, w1): 40 and 0 and 100
- Hair index score (% area x score, 0 to 3) ([1]; Local JAK1i, untreated side, w1, mean): 23±41
- Hair index score (% area x score, 0 to 3) ([1]; Local JAK1i, untreated side, w4): 70 and 0 and 10 and 30
- Hair index score (% area x score, 0 to 3) ([1]; Local JAK1i, untreated side, w4, mean): 18±28
- Hair index score (% area x score, 0 to 3) ([1]; Local JAK1i, untreated side, w6): 170 and 0 and 10 and 20
- Hair index score (% area x score, 0 to 3) ([1]; Local JAK1i, untreated side, w6, mean): 33±67
- Hair index score (% area x score, 0 to 3) ([1]; Local JAK1i, untreated side, w7): 170 and 0
- Hair index score (% area x score, 0 to 3) ([1]; Local JAK1i, untreated side, w7, mean): 28±69
- Hair index score (% area x score, 0 to 3) ([1]; Local JAK1i, untreated side, w8): 170 and 0 and 10
- Hair index score (% area x score, 0 to 3) ([1]; Local JAK1i, untreated side, w8, mean): 30±69
- Hair index score (% area x score, 0 to 3) ([1]; Local JAK1i, untreated side, w9): 200 and 0 and 25
- Hair index score (% area x score, 0 to 3) ([1]; Local JAK1i, untreated side, w9, mean): 37±80
- Hair index score (% area x score, 0 to 3) ([1]; Local JAK1i, untreated side, w11): 200 and 0 and 30 and 50
- Hair index score (% area x score, 0 to 3) ([1]; Local JAK1i, untreated side, w11, mean): 47±78

Structure (SMILES): COCC(C(=O)Nc1cccc2c(-c3nc(Nc4cccc(S(C)(=O)=O)c4F)ncc3F)c[nH]c12)N1CCN(C)CC1 (stereo not drawn) [Cmpd C]
- hair growth, result in words [1, 4]: induced hair growth
- hair growth, result in words [1, 9]: did not
- skin inflammation, result in words [2]: resolved inflammation
